Data reported in US6451832B2, “Benzimidazoles with antithrombotic activity” (Boehringer Ingelheim Pharma KG, priority 1999, dated 2002).

Key:
[1] = Oral resorption of prodrugs
human citrated plasma = assay: Prolongation of the aPTT time in human citrated plasma (Biomatic B10 coagulometer); assay type: biochemical; settings: concentration at which the aPTT time is doubled compared with the control, 37° C.
Experimental: were investigated as follows for their effects on prolonging the aPTT time:
Materials: plasma, from human citrated blood. PTT reagent, Boehringer Mannheim (524298), Calcium solution (0.025 mol/l), Behring Werke, Marburg (ORH 056/57), Diethylbarbiturate acetate buffer, Behring Werke, Marburg (ORWH 60/61), Biomatic B10 coagulometer, Desaga, Wiesloch.
The aPTT time was determined using a Biomatic B10 coagulometer made by Messrs. Desaga.
The test substance was placed in the test tubes prescribed by the manufacturer together with 0.1 ml of human citrated plasma and 0.1 ml of PTT reagent. The mixture was incubated for three minutes at 37° C. The clotting reaction was started by the addition of 0.1 ml of calcium solution. The time is measured using the apparatus from the addition of the calcium solution up to the clotting of the mixture. Mixtures to which 0.1 ml of DBA buffer were added were used as the controls.
According to the definition, a dosage-activity curve was used to determine the effective concentration of the substance, i.e. the concentration at which the aPTT time is doubled compared with the control.

CCCOC(=O)CN[C@@](C)(C(=O)N1CCCC1)c1ccc2c(c1)nc(CNc1ccc(C(=N)NC(=O)c3ccccc3)cc1)n2C [3(2), (R)-2-[4-(N-phenylcarbonylamidino)-phenylaminomethyl]-1-methyl-5-[1-(n-propyloxycarbonylmethylamino)-1-(pyrrolidinocarbonyl)-ethyl]-benzimidazole]
oral resorption [1]: good oral resorption

CCOC(=O)CNC(C)(C(=O)N1CC=CC1)c1ccc2c(c1)nc(CNc1ccc(C(=N)N)cc1)n2C.Cl.Cl (centres unmarked) [A, 2-(4-amidinophenylaminomethyl)-1-methyl-5-[1-(ethoxycarbonylmethylamino)-1-(2,5-dihydropyrrolocarbonyl)-ethyl]-benzimidazole-dihydrochloride]
aPTT time (ED200 in μM) (human citrated plasma): 0.13 µM

C[C@@H]1CCCN1C(=O)[C@](C)(NCC(=O)O)c1ccc2c(c1)nc(CNc1ccc(C(=N)N)cc1)n2C.Cl.Cl [B, (R)-2-(4-amidinophenylaminomethyl)-1-methyl-5-[1-(carboxymethylamino)-1-[(R,S)-2-methyl-pyrrolidinocarbonyl]-ethyl]-benzimidazole-dihydrochloride]
aPTT time (ED200 in μM) (human citrated plasma): 0.12 µM

Cl.Cl.Cn1c(CNc2ccc(C(=N)N)cc2)nc2cc(C(C)(NCC(=O)O)C(=O)N3CC=CC3)ccc21 (centres unmarked) [C, 2-(4-amidinophenylaminomethyl)-1-methyl-5-[1-(carboxymethylamino)-1-(2,5-dihydropyrrolocarbonyl)-ethyl]-benzimidazole-dihydrochloride]
aPTT time (ED200 in μM) (human citrated plasma): 0.22 µM

CCCCOC(=O)CN[C@@](C)(C(=O)N1CCCC1)c1ccc2c(c1)nc(CNc1ccc(C(=N)NC(=O)c3ccccc3)cc1)n2C [Example 2, (R)-2-[4-(N-phenylcarbonylamidino)-phenylaminomethyl]-1-methyl-5-[1-(n-butyloxycarbonylmethylamino)-1-(pyrrolidinocarbonyl)-ethyl]-benzimidazole]
oral resorption [1]: good oral resorption
